Measured values as given in US8299048B2, “Hexahydrocyclopentyl[f]indazole sulfonamides and derivatives thereof as selective glucocorticoid receptor modulators” (Merck Sharp & Dohme Corp., priority 2008, dated 2012).
Read-outs that look alike come from different tables or passages of the source.

Molecular target: T1, human GR (Homo sapiens, UniProt P04150)
T1 sequence (P04150 1-777): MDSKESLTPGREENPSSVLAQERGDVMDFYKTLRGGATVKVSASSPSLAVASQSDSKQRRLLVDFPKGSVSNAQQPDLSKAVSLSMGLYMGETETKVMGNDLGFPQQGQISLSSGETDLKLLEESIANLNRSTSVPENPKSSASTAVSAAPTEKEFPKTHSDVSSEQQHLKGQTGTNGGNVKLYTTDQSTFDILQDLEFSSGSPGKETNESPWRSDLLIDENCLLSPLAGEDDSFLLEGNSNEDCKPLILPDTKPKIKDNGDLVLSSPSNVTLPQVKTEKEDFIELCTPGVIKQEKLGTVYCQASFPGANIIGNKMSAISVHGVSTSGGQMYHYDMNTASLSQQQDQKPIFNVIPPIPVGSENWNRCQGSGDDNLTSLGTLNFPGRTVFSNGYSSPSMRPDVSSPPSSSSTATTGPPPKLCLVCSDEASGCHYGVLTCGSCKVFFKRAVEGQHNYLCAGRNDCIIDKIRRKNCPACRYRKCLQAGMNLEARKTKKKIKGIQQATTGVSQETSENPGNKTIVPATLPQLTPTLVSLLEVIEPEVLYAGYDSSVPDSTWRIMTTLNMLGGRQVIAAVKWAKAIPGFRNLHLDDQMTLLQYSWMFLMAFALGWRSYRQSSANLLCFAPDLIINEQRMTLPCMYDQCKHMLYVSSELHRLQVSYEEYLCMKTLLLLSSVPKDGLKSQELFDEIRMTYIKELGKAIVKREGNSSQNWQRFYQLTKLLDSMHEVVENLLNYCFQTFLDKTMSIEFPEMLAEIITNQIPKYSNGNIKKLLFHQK
Assay: Transrepression Assay (GITAR), TNFα-β-lactamase reporter in U937 cells
Format: cell-based
Design: U937 cells contain an endogenous glucocorticoid receptor (GR); endogenous in cells; host or cells: U937 cells stably transfected with the TNF-alpha promoter/beta-lactamase reporter
Conditions: for GITAR > GRAMM % SEP: GITAR Emax minus GRAMMER Emax; for EC50: U937 cells, inflection point, read-out: Transrepression U937 Cells GITAR IP
Outline: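 Read-out: CCF2-AM β-lactamase signal after 70–90 min loading at room temperature. U937 TNF-α-promoter reporter cells (endogenous GR), compound 30–45 min at 37 °C, then PMA 5 ng/ml + LPS 100 ng/ml final, ~18 hr. Normalised to 100 nM dexamethasone = 100%.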

[1] = U-937, U937 cells, maximum activity, read-out: Transrepression U937 Cells GITAR Emax
[2] = U-937, activity repressed by 100 nM dexamethasone alone set as 100%, read-out: maximal activity in the transrepression (GITAR) assay

GITAR > GRAMM % SEP [%]	EC50 [nM]	Emax [1] [%]	Emax [2] [%]	SMILES
34.0	651	67.6	> 5	COc1ccccc1CCN(C[C@H]1CCC2=Cc3c(cnn3-c3ccc(F)cc3)C[C@@]21C)S(=O)(=O)c1ccccc1F [Example 90, 2-fluoro-N-{[(4αR,5S)-1-(4-fluorophenyl)-4α-methyl-1,4,4α,5,6,7-hexahydrocyclopenta[f]indazol-5-yl]methyl}-N-[2-(2-methoxyphenyl)ethyl]benzenesulfonamide]
50.8	973	61.5	> 5	Cc1ccc(CCN(C[C@H]2CCC3=Cc4c(cnn4-c4ccc(F)cc4)C[C@@]32C)S(=O)(=O)c2ccccc2F)cc1 [Example 91, 2-fluoro-N-{[(4αR,5S)-1-(4-fluorophenyl)-4α-methyl-1,4,4α,5,6,7-hexahydrocyclopenta[f]indazol-5-yl]methyl}-N-[2-(4-methylphenyl)ethyl]benzenesulfonamide]
26.9	493	68.5	> 5	C[C@]12Cc3cnn(-c4ccc(F)cc4)c3C=C1CC[C@@H]2CN(CCc1ccccc1Cl)S(=O)(=O)c1ccccc1F [Example 92, N-[2-(2-chlorophenyl)ethyl]-2-fluoro-N-{[(4αR,5S)-1-(4-fluorophenyl)-4α-methyl-1,4,4α,5,6,7-hexahydrocyclopenta[f]indazol-5-yl]methyl}benzenesulfonamide]

Further lines, the compound ahead of its results:

SMILES	GITAR > GRAMM % SEP [%]	EC50 [nM]	Emax [1] [%]	Emax [2] [%]
CC(=O)Nc1ccc(S(=O)(=O)N(CCO)C[C@H]2CCC3=Cc4c(cnn4-c4ccc(F)cc4)C[C@@]32C)cc1 [Example 85, N-(4-{[{[(4αR,5S)-1-(4-fluorophenyl)-4α-methyl-1,4,4α,5,6,7-hexahydrocyclopenta[f]indazol-5-yl]methyl}(2-hydroxyethyl)amino]sulfonyl}phenyl)acetamide]	37.1	4230	38.8	> 5
C[C@]12Cc3cnn(-c4ccc(F)cc4)c3C=C1CC[C@@H]2CN(CCc1ccccc1F)S(=O)(=O)c1ccccc1F [Example 86, 2-fluoro-N-[2-(2-fluorophenyl)ethyl]-N-{[(4αR,5S)-1-(4-fluorophenyl)-4α-methyl-1,4,4α,5,6,7-hexahydrocyclopenta[f]indazol-5-yl]methyl}benzenesulfonamide]	12.4	262	80.6	> 5
CCCS(=O)(=O)N(CCc1ccccc1F)C[C@H]1CCC2=Cc3c(cnn3-c3ccc(F)cc3)C[C@@]21C [Example 87, N-[2-(2-fluorophenyl)ethyl]-N-{[(4αR,5S)-1-(4-fluorophenyl)-4α-methyl-1,4,4α,5,6,7-hexahydrocyclopenta[f]indazol-5-yl]methyl}propane-1-sulfonamide]	20.0	212	85.1	> 5
C[C@]12Cc3cnn(-c4ccc(F)cc4)c3C=C1CC[C@@H]2CN(CCc1ccccc1F)S(=O)(=O)Cc1cccc(C(F)(F)F)c1 [Example 88, N-[2-(2-fluorophenyl)ethyl]-N-{[(4αR,5S)-1-(4-fluorophenyl)-4α-methyl-1,4,4α,5,6,7-hexahydrocyclopenta[f]indazol-5-yl]methyl}-1-[3-(trifluoromethyl)phenyl]methanesulfonamide]	32.4	646	57.7	> 5
C[C@]12Cc3cnn(-c4ccc(F)cc4)c3C=C1CC[C@@H]2CN(CCc1ccccc1F)S(=O)(=O)CC(F)(F)F [Example 89, 2,2,2-trifluoro-N-[2-(2-fluorophenyl)ethyl]-N-{[(4αR,5S)-1-(4-fluorophenyl)-4α-methyl-1,4,4α,5,6,7-hexahydrocyclopenta[f]indazol-5-yl]methyl}ethanesulfonamide]	14.3	138	95.6	> 5
